Measurements published in patent publication US20050004186A1, “MEK inhibiting compounds” (Pfizer Inc, priority 2002, published 2005).

Tested on: MEK
Assay: Cellular assay for measuring MEK inhibition, C26CPA1 (inhibition of ERK phosphorylation in C26 cells)
Type: cell-based, murine
Conditions: for IC50: murine colon 26 (C26) carcinoma cells, one hour at 37 C; for C26CPA1 % Inhibition @ 0.1 μM / C26CPA1 % Inhibition @ 1 μM: C26 cells
Experimental: Cellular Assay for Measuring MEK Inhibition
MEK inhibitors were evaluated by determining their ability to inhibit phosphorylation of MAP kinase (ERK) in murine colon 26 (C26) carcinoma cells. Since ERK1 and ERK2 represent the only known substrates for MEK1 and MEK2, the measurement of inhibition of ERK phosphorylation in cells provides direct read out of cellular MEK inhibition by the compounds of the invention. Detection of phosphorylation of ERK was carried out either by Western blot or ELISA format. Briefly, the assays involve treatment of exponentially growing C26 cells with varying concentrations of the test compound (or vehicle control) for one hour at 37≡ C. For Western blot assay, cells were rinsed free of compound/vehicle and lysed in a solution containing 70 mM NaCl, 50 mM glycerol phosphate, 10 mM HEPES, […], 1% Triton X-100, 1 mM Na3VO4, 100 μM PMSF, 10 μM leupeptin and 10 μM pepstatin. Supernatants were then subjected to gel electrophoresis and hybridized to a primary antibody recognizing dually phosphorylated ERK1 and ERK2. To evaluate total MAPK levels, blots were subsequently ‘stripped’ and re-probed with a 1:1 mixture of polyclonal antibodies recognizing unphosphorylated ERK1 and ERK2. For pERK ELISA assay, pERK TiterZyme Enzyme immunometric Assay kits were acquired from Assay Designs, Inc (Ann Arbor, Mich.). Briefly, cells were harvested in lysis solution containing 50 mM β-glycerophosphate, 10 mM HEPES, pH7.4, 70 mM NaCl, 2 mM EDTA and 1% SDS and protein lysates were diluted 1:15 with supplied Assay buffer prior to the execution of the assay. The subsequent steps were carried out essentially as recommended by the manufacturer.

IC50 [nM]	SMILES	C26CPA1 % Inhibition @ 0.1 μM [%]	C26CPA1 % Inhibition @ 1 μM [%]
18	Nc1nnc(-c2cc(Cl)c(F)c(F)c2Nc2ccc(I)cc2F)o1 [Example 2, 5-[5-Chloro-3,4-difluoro-2-(2-fluoro-4-iodo-phenylamino)-phenyl]-[1,3,4]oxadiazol-2-ylamine]		
140	Nc1nnc(-c2ccc(F)c(F)c2Nc2ccc(Br)cc2F)o1 [Example 3, 5-[2-(4-Bromo-2-fluoro-phenylamino)-3,4-difluoro-phenyl]-[1.3,4]oxadiazol-2-ylamine]		
311	Fc1cc(I)ccc1Nc1c(-c2nnc(NCCCN3CCOCC3)o2)ccc(F)c1F [Example 9, {5-[3,4-Difluoro-2-(2-fluoro-4-iodo-phenylamino)-phenyl]-[1,3,4]oxadiazol-2-yl}-(3-morpholin-4-yl-propyl)-amine]		
> 1000	CN(C)CCCN(C)c1nnc(-c2ccc(F)c(F)c2Nc2ccc(I)cc2F)o1 [Example 12, N-{5-[3,4-Difluoro-2-(2-fluoro-4-iodo-phenylamino)-phenyl]-[1,3,4]oxadiazol-2-yl}-N,N′,N′-trimethyl-propane-1,3-diamine]		
382	Fc1cc(I)ccc1Nc1c(-c2nnc(NCCN3CCCCC3)o2)ccc(F)c1F [Example 13, {5-[3,4-Difluoro-2-(2-fluoro-4-iodo-phenylamino)-phenyl]-[1,3,4]oxadiazol-2-yl}-(2-piperidin-1-yl-ethyl)-amine]		
45	NCCCCNc1nnc(-c2ccc(F)c(F)c2Nc2ccc(I)cc2F)o1 [Example 14, N′1′-{5-[3,4-Difluoro-2-(2-fluoro-4-iodo-phenylamino)-phenyl]-[1,3,4]oxadiazol-2-yl}-butane-1,4-diamine]		
76	NCCCNc1nnc(-c2ccc(F)c(F)c2Nc2ccc(I)cc2F)o1 [Example 15, N′1′-{5-[3,4-Difluoro-2-(2-fluoro-4-iodo-phenylamino)-phenyl]-[1,3,4]oxadiazol-2-yl}-propane-1,3-diamine]		
136	CN(C)CCCNc1nnc(-c2ccc(F)c(F)c2Nc2ccc(I)cc2F)o1 [Example 16, N-{5-[3,4-Difluoro-2-(2-fluoro-4-iodo-phenylamino)-phenyl]-[1,3,4]oxadiazol-2-yl}-N′,N′-dimethyl-propane-1,3-diamine]		
140	CN(C)CCNc1nnc(-c2ccc(F)c(F)c2Nc2ccc(I)cc2F)o1 [Example 17, N-{5-[3,4-Difluoro-2-(2-fluoro-4-iodo-phenylamino)-phenyl]-[1,3,4]oxadiazol-2-yl}-N′,N′-dimethyl-ethane-1,2-diamine]		
27	CNCCNc1nnc(-c2ccc(F)c(F)c2Nc2ccc(I)cc2F)o1 [Example 18, N-{5-[3,4-Difluoro-2-(2-fluoro-4-iodo-phenylamino)-phenyl]-[1,3,4]oxadiazol-2-yl}-N′-methyl-ethane-1,2-diamine]		
80	COCCCNc1nnc(-c2ccc(F)c(F)c2Nc2ccc(I)cc2F)o1 [Example 20, {5-[3,4-Difluoro-2-(2-fluoro-4-iodo-phenylamino)-phenyl]-[1,3,4]oxadiazol-2-yl}-(3-methoxy-propyl)-amine]		
	COCCNc1nnc(-c2ccc(F)c(F)c2Nc2ccc(I)cc2F)o1 [Example 33, {5-[3,4-Difluoro-2-(2-fluoro-4-iodo-phenylamino)-phenyl]-[1,3,4]oxadiazol-2-yl}-(2-methoxy-ethyl)-amine]	0	57.7
	Fc1cc(I)ccc1Nc1c(-c2nnc(NCCOc3ccccc3)o2)ccc(F)c1F [Example 34, {5-[3,4-Difluoro-2-(2-fluoro-4-iodo-phenylamino)-phenyl]-[1,3,4]oxadiazol-2-yl}-(2-phenoxy-ethyl)-amine]	0	69
	Fc1cc(I)ccc1Nc1c(-c2nnc(NCCc3ccncc3)o2)ccc(F)c1F [Example 35, {5-[3,4-Difluoro-2-(2-fluoro-4-iodo-phenylamino)-phenyl]-[1,3,4]oxadiazol-2-yl}-(2-pyridin-4-yl-ethyl)-amine]	0	74.9
	CCCCNc1nnc(-c2ccc(F)c(F)c2Nc2ccc(I)cc2F)o1 [Example 36, Butyl-{5-[3,4-difluoro-2-(2-fluoro-4-iodo-phenylamino)-phenyl]-[1,3,4]oxadiazol-2-yl}-amine]	23.8	67
	Cc1ccc(CNc2nnc(-c3ccc(F)c(F)c3Nc3ccc(I)cc3F)o2)o1 [Example 37, {5-[3,4-Difluoro-2-(2-fluoro-4-iodo-phenylamino)-phenyl]-[1,3,4]oxadiazol-2-yl}-(5-methyl-furan-2-ylmethyl)-amine]	18.4	87.2
	Fc1cc(I)ccc1Nc1c(-c2nnc(NCCc3cccs3)o2)ccc(F)c1F [Example 38, {5-[3,4-Difluoro-2-(2-fluoro-4-iodo-phenylamino)-phenyl]-[1,3,4]oxadiazol-2-yl}-(2-thiophen-2-yl-ethyl)-amine]	0	65.1
	COc1cccc(CCNc2nnc(-c3ccc(F)c(F)c3Nc3ccc(I)cc3F)o2)c1 [Example 39, {5-[3,4-Difluoro-2-(2-fluoro-4-iodo-phenylamino)-phenyl]-[1,3,4]oxadiazol-2-yl}-[2-(3-methoxy-phenyl)-ethyl]-amine]	0	40.2
	COc1ccc(CCNc2nnc(-c3ccc(F)c(F)c3Nc3ccc(I)cc3F)o2)cc1OC [Example 40, {5-[3,4-Difluoro-2-(2-fluoro-4-iodo-phenylamino)-phenyl]-[1,3,4]oxadiazol-2-yl}-[2-(3,4-dimethoxy-phenyl)-ethyl]-amine]	0	26.2
	COc1ccc(OC)c(CCNc2nnc(-c3ccc(F)c(F)c3Nc3ccc(I)cc3F)o2)c1 [Example 41, {5-[3,4-Difluoro-2-(2-fluoro-4-iodo-phenylamino)-phenyl]-[1,3,4]oxadiazol-2-yl}-[2-(2,5-dimethoxy-phenyl)-ethyl]-amine]	0	29.8
	COc1ccc(CCN(C)c2nnc(-c3ccc(F)c(F)c3Nc3ccc(I)cc3F)o2)cc1OC [Example 42, {5-[3,4-Difluoro-2-(2-fluoro-4-iodo-phenylamino)-phenyl]-[1,3,4]oxadiazol-2-yl}-[2-(3,4-dimethoxy-phenyl)-ethyl]-methyl-amine]	8.3	10
	CN(CCc1ccncc1)c1nnc(-c2ccc(F)c(F)c2Nc2ccc(I)cc2F)o1 [Example 43, {5-[3,4-Difluoro-2-(2-fluoro-4-iodo-phenylamino)-phenyl]-[1,3,4]oxadiazol-2-yl}-methyl-(2-pyridin-4-yl-ethyl)-amine]	26.6	31.7
	CN(CCc1ccccn1)c1nnc(-c2ccc(F)c(F)c2Nc2ccc(I)cc2F)o1 [Example 44, {5-[3,4-Difluoro-2-(2-fluoro-4-iodo-phenylamino)-phenyl]-[1,3,4]oxadiazol-2-yl}-methyl-(2-pyridin-2-yl-ethyl)-amine]	5.2	19
	CCCNc1nnc(-c2ccc(F)c(F)c2Nc2ccc(I)cc2F)o1 [Example 45, {5-[3,4-Difluoro-2-(2-fluoro-4-iodo-phenylamino)-phenyl]-[1,3,4]oxadiazol-2-yl}-propyl-amine]	3.1	31.4
	CCC(C)Nc1nnc(-c2ccc(F)c(F)c2Nc2ccc(I)cc2F)o1 (centres unmarked) [Example 46, sec-Butyl-{5-[3,4-difluoro-2-(2-fluoro-4-iodo-phenylamino)-phenyl]-[1,3,4]oxadiazol-2-yl}-amine]	31.2	31.6
	CC(C)(C)CNc1nnc(-c2ccc(F)c(F)c2Nc2ccc(I)cc2F)o1 [Example 47, {5-[3,4-Difluoro-2-(2-fluoro-4-iodo-phenylamino)-phenyl]-[1,3,4]oxadiazol-2-yl}-(2,2-dimethyl-propyl)-amine]	18.9	43.2
	CC(C)CNc1nnc(-c2ccc(F)c(F)c2Nc2ccc(I)cc2F)o1 [Example 48, {5-[3,4-Difluoro-2-(2-fluoro-4-iodo-phenylamino)-phenyl]-[1,3,4]oxadiazol-2-yl}-isobutyl-amine]	31.7	66.9
	CC(Nc1nnc(-c2ccc(F)c(F)c2Nc2ccc(I)cc2F)o1)C(C)(C)C (centres unmarked) [Example 49, {5-[3,4-Difluoro-2-(2-fluoro-4-iodo-phenylamino)-phenyl]-[1,3,4]oxadiazol-2-yl}-(1,2,2-trimethyl-propyl)-amine]	0	0
	CCC(C)CNc1nnc(-c2ccc(F)c(F)c2Nc2ccc(I)cc2F)o1 (centres unmarked) [Example 50, {5-[3,4-Difluoro-2-(2-fluoro-4-iodo-phenylamino)-phenyl]-[1,3,4]oxadiazol-2-yl}-(2-methyl-butyl)-amine]	0	15.2
